Data from patent US20230226138A1, “COMPOSITIONS AND METHODS FOR TREATING INFECTIONS AND NETOPATHY” (Black Cat Bio Limited, priority 2020, published 2023).
Where two headings read alike, the source gives them in different places.

Legend:
[1] = system: P38MAP kinase; details: cited from earlier work
[2] = biological target: Src kinase (Homo sapiens, UniProt P12931); details: cited from earlier work
[3] = animal disease models; cited from earlier work
[4] = system: NETosis in Neutrophils (H3R8 citrullinated nucleosomes); assay: NETosis quantified by release of H3R8 citrullinated nucleosomes from stimulated neutrophils; format: cell-based, human; details: for citrullinated nucleosomes: 4 hours
[5] = system: TMPRSS2; details: 6 hrs; for relative expression of TMPRSS2: LNCaP
Protocol: (§1) LNCaP (prostate) and A549 (Androgen receptor positive, human alveolar carcinoma-derived cell line with type II pneumonocyte properties) cells were seeded in 12-well plates (2×10^5 cells per well) in phenol red free RPMI-1640 and DMEM media (Lonza), supplemented with 5% and 2% double charcoal stripped FCS (First Link UK) respectively, and 2 mM I-glutamine, 100 units/ml penicillin and […] streptomycin (Sigma). Charcoal stripping was required to remove residual traces of hormones (Sedelaar et al, (2009)). Cells were treated with 0-100 nM dihydrotestosterone (DHT, Sigma) for 6 hrs. RNA was extracted using TRIzol (Thermo Fisher Scientific) and reverse transcribed (LunaScript RT Supermix Kit, NEB). TMPRSS2 and ACE2 expression was quantified using qPCR (LightCycler 96, Roche) and the data normalized to an internal control (L19).

[6] = system: ACE2; details: 6 hrs
Protocol: as §1

[7] = system: Neutrophils (NETosis); format: cell-based, human
Protocol: Neutrophils, isolated as described in Example 4 (or by equivalent methodology as known in the art, for example, Ficoll Density gradient and dextran sedimentation followed by Red blood cell lysis with hypertonic solution) are resuspended in phenol red free RPMI 1640 media at a density of 2×10^6 cells per milliliter and incubated for five minutes in the dark at room temperature with NUCLEAR-ID Red (membrane impermeable) DNA dye to stain nuclei (1 ml/1.5 ml of cell suspension; Enzo Life Sciences). Cells are washed three times to remove free Dye by centrifuging at 2400 RFI for 5 min to pellet the cells and replacing supernatant with 1 ml fresh phenol red free RPMI 1640 media. […]
Neutrophils are imaged within 10 min of plating using phase contrast, red (800-ms exposure), and green (400-ms exposure) channels in an IncuCyte ZOOM platform, housed inside an incubator at 37° C. with 5% CO2. […] The Number of neutrophils is then calculated as the average red count for the three images per well and the Number of green cells calculated as the average green count. The percentage of neutrophils undergoing NETosis is calculated as the average green count divide by the average red count at each time point measured.

[8] = system: TMPRSS2; format: cell-based, human; details: for TMPRSS2 protein expression: relative to non-DHT stimulated control
Protocol: (§2) LNCaP and A549 cells were seeded at a density of 1×10^6 in 6-well plates and incubated for 72 hours in phenol red free RPM1-1640 and DMEM media (Lonza), supplemented with 5% and 2% double charcoal stripped FCS (First Link UK) respectively, and 2 mM I-glutamine, 100 units/ml penicillin and […] streptomycin (Sigma). Cells were treated with 100 ng/ml Epithelial Growth Factor (EGF, Sigma) or 1 nM DHT (dihydrotestosterone, Sigma) ±SA Inhibitor for 72 hrs. Cells were harvested and proteins separated using SDS-PAGE. Blots were probed with antibodies specific for TMPRSS2 (ab92323, Abcam) and α-tubulin (B-5-1-2, Sigma). Protein levels were visualized using a chemiluminescence imaging system (Fusion FX, Vilber). Densitometry was performed using Image J and TMPRSS2 levels normalised to the internal control (Tubulin).

[9] = system: TMPRSS2; format: cell-based, human; details: for TMPRSS2 protein expression: relative to non-DHT stimulated control; remark: listed apart in the source
Protocol: as §2

[10] = system: TMPRSS2; assay: TMPRSS2 protein levels in A549 in full media (SDS-PAGE blot, densitometry); format: cell-based, human; details: A549, full media (10% FCS), 72 hrs
Protocol: A549 were seeded in 6-well plates at a density of 1×10^6 per well. Cells were incubated in DMEM media (Lonza), supplemented with 10% FCS (HyClone) and 2 mM !-glutamine, 100 units/ml penicillin and 100 mg/ml streptomycin (Sigma). […] Cells were treated with 0-1 μM SA Inhibitor (SEQ ID NO: 2) or 10 μM Enzalutamide (ENZA, Sigma) for 72 hrs. Cells were harvested and proteins separated using SDS-PAGE. Blots were probed with antibodies specific for TMPRSS2 (ab92323, Abcam) and α-tubulin (B-5-1-2, Sigma). Protein levels were visualized using a chemiluminescence imaging system (Fusion FX, Vilber). Densitometry was performed using Image J and TMPRSS2 levels normalized to the internal control (Tubulin).

[11] = system: Neutrophils (NETosis); assay: Live cell imaging of IL8 triggered NETosis (Example 7); format: cell-based, human
Protocol: In a similar experiment to that described in Example 5, IL8 (Merck, Product Number 11645-10UG) is used to activate NETosis in response to LPS using a similar checkerboard configuration as shown in Table 4 (working IL6 concentrations 0, 1, 10 and 100 nM).

[12] = system: COVID-19 patient derived neutrophils (NETosis); assay: Live cell imaging of NETosis in COVID-19 patient derived neutrophils (Example 8); format: cell-based, human; details: neutrophils from a SARSCoV-2 patient in intensive care
[13] = system: COVID-19 virus infection; assay: Patient case, standalone SA inhibitor, viral load and NETosis (Example 13); format: in vivo, human; details: 4 mg/kg once daily sub-cutaneous
[14] = Patient case, flare up of Chron's disease, dry powder inhaler (second Example 14); format: in vivo, human; details: one metered dose (1 mg/kg) each morning, after eight days
Protocol: […] […] The patient is advised to take one metered dose (1 mg/kg) each morning until symptoms abate.

[15] = Patient case, sterile inflammatory response following trauma (Example 11); format: in vivo, human; details: 4 mg/kg sub-cutaneous once daily, post traumatic sepsis, after a few days
Excerpt: The patient is admitted to an intensive care unit and placed in an induced coma. […] The patients' cultures fail to reveal a bacterial infection. After a few days of once daily administration of the peptide, markers of Systematic Inflammatory Response Syndrome (SIRS), including temperature, heart rate and breathing rate improve. The peptide is continued to be administered until SIRS markers have returned to normal.

[16] = system: NETosis in Neutrophils (H3.1 nucleosomes); assay: NETosis quantified by release of H3.1 nucleosomes from stimulated neutrophils; details: 4 hours
Protocol: The ability of SA Inhibitor to reduce NETosis in Neutrophils stimulated by lipopolysaccharide (LPS, Sigma Aldrich, Product Number L4391-1MG) alone or in combination with Epidermal growth factor (Sigma Aldrich, Product Number SRP3027-500UG) was compared to the efficacy of a Src kinase Inhibitor (PP2, Sigma Aldrich, Product Number P0042-5MG) and a PAD4 inhibitor (GSK484, Cambridge Bioscience UK, Product Number CAY17488-1 mg) which is known to down regulate NETosis by preventing citrullination of histone proteins. […]
Tube-2 was placed into the magnet and after 10 minutes incubation the clear fraction (enriched cell suspension) collected by single pipette and transferred into a fresh 50 ml conical falcon tube (Tube-3) which was placed back into the magnet for a final, third separation. The clear fraction, containing purified, isolated neutrophils was transferred into a fresh 50 ml conical falcon tube (Tube-4) and the neutrophil cell Number, % viability and yield determined by cell counting and Trypan blue exclusion. […]

[17] = system: SARS-COV-2 infection; assay: Patient case, standalone SA inhibitor to reduce viral load (Example 12); format: in vivo, human; details: 4 mg/kg once daily sub-cutaneous, after a few days
Excerpt: A patient is brought into the hospital suffering from respiratory flu like symptoms. A blood sample is taken from the patient, who is confirmed by PCR analysis of viral RNA to have a SARS-COV-2 infection. […] Administration of the peptide continues until the patient is confirmed to be virus free by PCR.

[18] = system: Neutrophils (NETosis); assay: Live cell imaging of IL6 triggered NETosis (Example 6); format: cell-based, human
Protocol: In a similar experiment to that described in Example 5, IL6 (Merck, Product Number H7416-10UG) is used to activate NETosis in response to LPS using a similar checkerboard configuration as shown in Table 4 (working IL6 concentrations 0, 10, 50 and 100 ng/mL).

[19] = system: Staphylococcus aureus infection; assay: Patient case, bacterial infection with septic shock (Example 10); format: in vivo, human; details: 4 mg/kg sub-cutaneous once daily, antibiotics also administered, after a few days
Protocol: A patient is seen in the Emergency Room. The patient is running a temperature of 102° F. with a heart rate exceeding 90 beats/minute and rapid breathing. Septic shock is confirmed based on the requirement for vasopresser administration to maintain a mean arterial pressure of 65 mmHg and serum lactate level over 2 mmol/L. The patient is noted to be suffering from impaired kidney function. […] A Staphylococcus aureus infection is confirmed, and antibiotics administered. […] The peptide is continued to be administered once daily to the patient until the patient is recovered.

Src kinase, sequence (P12931 whole entry): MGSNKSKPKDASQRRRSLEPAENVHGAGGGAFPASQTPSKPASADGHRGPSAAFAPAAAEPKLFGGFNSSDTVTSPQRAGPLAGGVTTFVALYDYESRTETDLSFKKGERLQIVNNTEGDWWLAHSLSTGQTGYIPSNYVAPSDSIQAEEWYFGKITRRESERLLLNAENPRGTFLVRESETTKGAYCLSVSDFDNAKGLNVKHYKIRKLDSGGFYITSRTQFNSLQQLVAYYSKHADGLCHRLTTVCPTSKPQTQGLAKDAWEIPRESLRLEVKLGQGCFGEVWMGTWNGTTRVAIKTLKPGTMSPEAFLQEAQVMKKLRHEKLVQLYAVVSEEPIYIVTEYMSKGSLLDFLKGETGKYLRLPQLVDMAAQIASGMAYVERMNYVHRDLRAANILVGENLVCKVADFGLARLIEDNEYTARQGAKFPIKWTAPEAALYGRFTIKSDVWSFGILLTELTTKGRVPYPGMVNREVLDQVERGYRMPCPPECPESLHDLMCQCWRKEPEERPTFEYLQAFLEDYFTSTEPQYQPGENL

With `O=C(O)c1cccnc1` [Niacin] as the compound, how does the P38MAP kinase activity [1] read?
The P38MAP kinase activity was “inhibited”.

And the Src kinase activity [2]?
The Src kinase activity was “inhibited”.

And the “chemically induced lung fibrosis” value [3]?
Its value is “reduced”.

Which “suppression of NETosis by citrullinated nucleosome marker” value ([4]; LPS or LPS and EGF (FIG. 4C, 4D), inhibitor 0.1-10 uM) does the source give for `COc1cc(C(=O)N2CC[C@@H](O)[C@@H](N)C2)cc2nc(-c3cc4ccccc4n3CC3CC3)n(C)c12` [PAD4i, reference compound] here?
The value was “dose response reduction in citrullinated nucleosomes levels”.

Which TMPRSS2 expression increase ([5]; A549, 1 nM dihydrotestosterone, compared to cells grown in the absence of dihydrotestosterone) does the source give for `C[C@]12CCC(=O)C[C@@H]1CC[C@@H]1[C@@H]2CC[C@]2(C)[C@@H](O)CC[C@@H]12` [dihydrotestosterone] here?
The TMPRSS2 expression increase was “over 2 ×”.

What about the “relative expression of TMPRSS2” value ([5]; 0.1 nM dihydrotestosterone, compared to cells grown in the absence of dihydrotestosterone) of the same compound?
The value was “approximately 3 ×”.

And the “relative expression of TMPRSS2” value ([5]; 10 nM dihydrotestosterone, compared to the control)?
The value was 6 ×.

And the “relative expression of ACE2” value ([6]; A549, 0-100 nM dihydrotestosterone)?
The value was “slight negative correlation with dihydrotestosterone concentration”.

What about the “expression of ACE2, dose response to stimulation” value ([6]; LNCaP, 0-100 nM dihydrotestosterone) of the same compound?
The value was “TMPRSS2, but not ACE2, showed a dose response”.

And the “level of NETosis (percentage of neutrophils undergoing NETosis)” value [7]?
The value was “increased with increasing concentrations of dihydrotestosterone”.

What about the TMPRSS2 relative expression [8] of the same compound?
The TMPRSS2 relative expression was 168%.

And the TMPRSS2 relative expression [9]?
The TMPRSS2 relative expression was 120.9%.

With `CNC(=O)c1ccc(N2C(=S)N(c3ccc(C#N)c(C(F)(F)F)c3)C(=O)C2(C)C)cc1F` [enzalutamide, Enzalutamide, reference compound] as the compound, how does the “expression of TMPRSS2 protein” value ([10]; 10 μM Enzalutamide) read?
The value was “did not achieve down regulation”.

For “Ac-Pro-Pro-Pro-His-Pro-His-Ala-Arg-Ile-Lys-NH2 (Ac-PPPHPHARIK-NH2) [SA Inhibitor]”, which “effect on IL8 increased NETosis” value ([11]; LPS trigger plus IL8, SA Inhibitor checkerboard as Table 4) is on record?
Its value is “This increase is reversed”.

What about the “expression of TMPRSS2 protein” value ([10]; 0-1 μM SA Inhibitor) of the same compound?
The value was “decreased expression up to 10 nM SA Inhibitor followed by a progressive increase up to 1 μM”.

And the “level of NETosis” value [12]?
The value was “shown to decrease in the treated neutrophils”.

What about the citrullinated nucleosomes ([4]; LPS trigger, 0.1 uM SA Inhibitor, LPS alone 158 ng/mL) of the same compound?
The citrullinated nucleosomes was 126.5 ng/mL.

And the citrullinated nucleosomes ([4]; LPS trigger, 10 uM SA Inhibitor, LPS alone 158 ng/mL)?
Its citrullinated nucleosomes is 66.6 ng/mL.

What about the citrullinated nucleosomes ([4]; combined LPS and EGF, 0.1 uM SA Inhibitor, without inhibitor 208.5 ng/mL) of the same compound?
The citrullinated nucleosomes was 111.1 ng/mL.

And the “lung function / SpO2” value [13]?
Its value is “improved lung function with a higher measured SpO2 level”.

And the “viral load, as measured by PCR” value ([13]; after a few days)?
The value was “reduced and lower than would be expected in the absence of the peptide”.

And the “Chron's disease flare up outcome” value [14]?
Its value is “goes back into remission”.

What about the “markers of SIRS (temperature, heart rate, breathing rate)” value [15] of the same compound?
Its value is “improve”.

What about the “effect on DHT increased NETosis” value ([7]; 20 ug/mL LPS trigger plus DHT, SA Inhibitor 1 nM-1 mM, 30 minutes preincubation) of the same compound?
Its value is “This increase is reversed”.

And the “H3.1 NETosis derived nucleosome levels” value ([16]; LPS in combination with EGF, without inhibitor 641.9 ng/mL, inhibitor concentration not stated)?
Its value is 254.2 ng/mL.

And the H3.1 nucleosomes released ([16]; LPS trigger, 0.1 uM SA Inhibitor, LPS alone 523.2 ng/mL)?
The H3.1 nucleosomes released was 339.4 ng/mL.

And the “viral load as determined by PCR” value [17]?
Its value is “lower than what would have been expected in the absence of the administration of the peptide”.

And the “effect on EGF suppression of TMPRSS2 expression” value ([8]; EGF alone and with DHT, cell line not specified (LNCaP and A549 tested))?
The value was “reversed this inhibitory effect”.

What about the TMPRSS2 protein expression ([8]; LNCaP, SA Inhibitor in the absence of DHT stimulation, 72 hrs) of the same compound?
Its TMPRSS2 protein expression is 58.7%.

And the TMPRSS2 protein expression ([8]; LNCaP, SA Inhibitor with DHT stimulation (1 nM), 72 hrs)?
The TMPRSS2 protein expression was 60.4%.

What about the TMPRSS2 protein expression ([9]; A549, SA Inhibitor in the absence of DHT stimulation, 72 hrs) of the same compound?
The TMPRSS2 protein expression was 77.6%.

And the TMPRSS2 protein expression ([9]; A549, SA Inhibitor with DHT stimulation (1 nM), 72 hrs)?
Its TMPRSS2 protein expression is 70.2%.

And the “effect on IL6 increased NETosis” value ([18]; LPS trigger plus IL6, SA Inhibitor checkerboard as Table 4)?
Its value is “This increase is reversed”.

What about the kidney function [19] of the same compound?
Its kidney function is “returns to normal”.

And the “markers of SIRS (temperature, heart rate, breathing rate)” value [19]?
Its value is “improve”.

What does the source list for “EGF: Epithelial Growth Factor (EGF, Sigma) (NSDSECPLSHDGYCLHDGVCMYIEALDKYACNCVVGYIGERCQYRDLKWWELR; UniProt P01133 971-1023, looked up) [reference compound]”?
TMPRSS2 relative expression ([8]; LNCaP, 100 ng/ml EGF, 72 hrs): 62.8%; TMPRSS2 relative expression ([9]; A549, 100 ng/ml EGF, 72 hrs): 797%

With “IL6: IL6 (Merck) used to activate NETosis in response to LPS [reference compound]” as the compound, how does the “level of NETosis” value ([18]; LPS trigger, IL6 0, 10, 50 and 100 ng/mL) read?
Its value is “increased with increasing concentrations of IL6”.

For “IL8: IL8 (Merck) used to activate NETosis in response to LPS [reference compound]”, which “level of NETosis” value ([11]; LPS trigger, IL8 0, 1, 10 and 100 nM) is on record?
Its value is “increased with increasing concentrations of IL8”.
